Data set [1] deals with rats. The experiment in a line: Novel object recognition test in rats. The data set is classed as in vivo, Sprague-Dawley rats. On the procedure:
In this example, the effect of magnesium supplementation on recognition memory was tested. Three groups of rats were used in these experiments: 1) young rats (three months old); aging rats (12-14 months old), and; 3) magnesium-treated aging rats (12-14 months old, diet supplemented with 6 mg/kg MgCl2 from 8 months of age). We used experimentally naive, female, Sprague-Dawley young […], aging (12-14 month old) and […] rats (Charles River) at the beginning of the behavior experiments. They were housed two per cage with continuous access to food and water under a 12:12 light-dark cycle, with light onset at 8:00 a.m. […] All experiments involving animals were approved by the Massachusetts Institute of Technology's and Tsinghua University Committees on Animal Care.
The three groups of rats were tested for recognition memory using an object recognition test with a single exposure to the object during training. The task is based on the natural tendency of rodents to explore new objects and tests the animals' memory capacity for distinguishing novel versus familiar objects.
Briefly, the rats were first individually habituated to the personnel and then to open-field arena during 2 weeks. […] The retention intervals were 10 min and 24 hours. Objects were cleaned thoroughly between trials with 20% ethanol solution to ensure the absence of olfactory cues. The particular objects for a given trial were randomly determined, but each object was used for only one trial per rat. Memory of the familiar object is associated with increased exploration of the new object and an exploration index (% correct) is calculated as new object inspection time/30.
In this example, the effect of magnesium supplementation on memory consolidation was studied. […]
Briefly, the rats were first individually habituated to the personnel and then to open-field arena during 2 weeks. […] The particular objects for a given trial were randomly determined, but each object was used for only one trial per rat. […]

The test system of data set [2] is rats. The method, then:
Twenty 2-month old, male Sprague Dawley (SD) rats were housed in a temperature-controlled room (22° C. to 25° C.) with a dark period from 08:00 pm to 08:00 am daily. […] Over 7 days before the training and trial period began, each rat was handled and habituated to the maze and to Kellogg's Froot Loop cereal.
Each rat underwent a test of one trial, followed by an interval of 10-minutes, followed by another trial, and so on, for a total of 6 trials in one day. In each trial, each rat went through a sample run in the maze, followed by an interval of 15 seconds, followed by a choice run in the maze. In the sample run, the subject rat was forced to go to the left or to the right by the presence of a block, according to a pseudorandom sequence (with an equal number of left turns and right turns, and no more than two consecutive turns in the same direction). As a reward, Froot Loop cereal was available in the food well at the end of the run, regardless of the direction that was taken by virtue of the block. In the choice run, the block that had been present in the preceding sample run was removed, and the rat was allowed to choose to go to the left or to the right. As a reward, Froot Loop cereal was available in the food well at the end of the run, only when the rat had made a “correct choice” by choosing the direction opposite that taken in the preceding sample run. […]
On the first day (designated day 0) of the feeding of the two groups, as just described, each rat underwent a preliminary test of one trial, followed by an interval of 10 minutes, followed by another trial, and so on, for a total of 4 trials in one day. […] In this preliminary test, the choice accuracy level, or ratio of correct choices made, co, to the number of number of trials in the test, no, was determined for each rat. […]
Three groups of animals (young, aging, and magnesium-treated aging rats) were used. […] Spatial working memory was assessed using a T-maze non-matching-to-place task. […] Spatial working memory was first assessed on an elevated T-maze. […]

In data set [3] the test system is rats. The following applies: 2% in food for 8 days, cited from earlier work.
The test system of data set [4] is mice genetically altered to present symptoms of Alzheimer's disease (AD). The data set can be described thus: Modified Morris water maze test in AD mice. The data set is classed as in vivo. The settings on record: AD mice aged 13 months, compared with aricept. On the procedure: Another group, the control group, of 10 mice that were genetically altered to present symptoms of AD were fed a Control Diet, a diet of normal solid food and water, for 30 days.
The pool used was a pool of water in a circular metal tank (150 cm in diameter and 50 cm in depth) having a water height of 30 cm and a water temperature that was maintained at ˜22° C. The pool was placed in a moderately lit area and surrounded by a black curtain. An acrylic platform (15 cm in diameter) was placed 2 cm below the surface of the water in the middle of one quadrant of the pool, equidistant from the center and the edge of the pool. Outside the pool, a cue was placed so as to be visible to a mouse in the maze, allowing a mouse to use it as a landmark for spatial orientation. The cue remained unchanged throughout the test period.
On the first day of the training and testing period, the water in the pool was transparent, such that the platform was visible. Each mouse was trained to swim towards the platform and to stand on the platform so as not to be submerged in the pool. […] The amount of time the mouse took to find the platform, referred to as “escape latency,” was recorded for each trial.
On the second day of the training and testing period, a small quantity of milk was added to the water in the pool, such that the pool was opaque and the platform was no longer visible. […]

SMILES strings stand for the structures.

Turning to `[Cl-].[Cl-].[Mg+2]` [MgCl2, magnesium chloride], the “novel object exploration preference, 10 minute retention interval” value in the data set with rats [1] (aging rats 12-14 months, 6 mg/kg MgCl2 from 8 months of age, single training) was “preferentially explored the novel object to the same extent as young rats”. For the same compound, the “novel versus familiar object discrimination, 24 hours retention” value in the data set on rats [1] (aging rats, 6 mg/kg MgCl2, single training) is reported as “lose there ability to distinguish novel versus familiar objects”. Besides, in the data set with rats [1] (aging rats, two training sessions separated by 10 minutes), the “preference for the novel object, 24-hour retention after spaced training” value is “retained a high level of preference”. For the same compound, the “asymptotic choice accuracy level” value in the data set on rats [2] (after 8 days of training, 15 s delay) is reported as ~94%. In addition, the “spatial working memory at increased delay” value with rats [2] (aging rats, MgCl2 diet, 2 and 5 min delays) was “significantly enhanced the performance of the aging rats at 2 and 5 min delays”. Besides, the “learning in non-matching-to-place task” value with rats [2] (aging rats, MgCl2 diet, 15 sec delay) was “performed significantly better from their first trials”.

Turning to `[O]=[Mg]` [magnesium oxide], the side-effect entry in the data set on rats [3] is “diarrhea and weight loss”. For the same compound, the cognitive function result in the data set on rats [3] (young (9-month) and aged (25-month) rats) was “some sign of improvement of cognitive function”.

As for `CC12CC3CC(C)(C1)CC(N)(C3)C2` [memantine], the “reduction of the effects of AD on learning capacity, comparison of anti-AD drugs” value in data set [4] was “better at reducing the effects of AD on learning capacity than aricept”.

The values are drawn from US8178132B2, “Magnesium-containing food compositions” (Magceutics, Inc., priority 2007, dated 2012).
